Counter-ions that a name gives are not always drawn.

For the first experiment, the target named is T1, full-length USP7 (Homo sapiens, UniProt Q93009).
T1 construct: A 45 μl reaction volume containing full-length USP7 (0.5-1.0 nM)
T1 sequence (Q93009 whole entry): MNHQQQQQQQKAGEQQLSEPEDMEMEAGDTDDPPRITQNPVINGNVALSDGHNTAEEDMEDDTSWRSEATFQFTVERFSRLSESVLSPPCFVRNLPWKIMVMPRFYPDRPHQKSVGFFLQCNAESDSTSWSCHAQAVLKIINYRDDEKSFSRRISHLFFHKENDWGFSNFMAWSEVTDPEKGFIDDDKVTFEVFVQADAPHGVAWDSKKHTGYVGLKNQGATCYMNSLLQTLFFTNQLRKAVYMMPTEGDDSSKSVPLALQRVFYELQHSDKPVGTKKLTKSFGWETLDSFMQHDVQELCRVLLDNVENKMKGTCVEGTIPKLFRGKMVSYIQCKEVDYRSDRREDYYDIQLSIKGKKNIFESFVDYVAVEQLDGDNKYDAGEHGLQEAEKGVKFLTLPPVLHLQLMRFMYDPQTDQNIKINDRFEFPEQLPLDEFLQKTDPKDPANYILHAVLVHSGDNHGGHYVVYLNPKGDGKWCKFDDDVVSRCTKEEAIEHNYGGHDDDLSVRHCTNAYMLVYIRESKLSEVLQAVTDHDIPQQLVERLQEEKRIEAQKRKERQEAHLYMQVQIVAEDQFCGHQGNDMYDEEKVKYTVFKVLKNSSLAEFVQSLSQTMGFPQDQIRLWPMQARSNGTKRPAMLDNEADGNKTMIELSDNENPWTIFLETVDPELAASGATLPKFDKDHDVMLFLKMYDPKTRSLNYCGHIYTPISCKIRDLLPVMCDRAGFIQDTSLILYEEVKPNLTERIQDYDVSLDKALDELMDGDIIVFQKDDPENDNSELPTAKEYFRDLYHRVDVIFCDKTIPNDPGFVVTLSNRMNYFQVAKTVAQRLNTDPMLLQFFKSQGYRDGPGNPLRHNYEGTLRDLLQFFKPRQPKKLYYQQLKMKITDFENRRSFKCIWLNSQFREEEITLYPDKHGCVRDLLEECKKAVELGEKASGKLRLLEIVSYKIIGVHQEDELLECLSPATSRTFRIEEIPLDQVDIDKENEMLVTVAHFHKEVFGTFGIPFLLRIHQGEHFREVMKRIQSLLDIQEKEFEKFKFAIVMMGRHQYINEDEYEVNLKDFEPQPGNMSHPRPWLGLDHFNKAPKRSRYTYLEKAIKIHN
As to the kind of experiment: Enzymatic assay to determine % inhibition of USP7 activity at 1 μM test compound (Ubiquitin-Rhodamine 110 cleavage). In kind it is biochemical. The conditions noted are these: 1 μM of the test compound; given where IC50 has not been determined yet; mean of two repetitions. Here is the method:
Enzymatic Assay to Determine % Value of Inhibition […] Activity at 1 μM […]
A 45 μl reaction volume containing full-length USP7 (0.5-1.0 nM) in 50 mM HEPES pH 7.5, 150 mM NaCl, 2 mM DTT, 1 mg/ml BSA and 0.05% Tween20 (DUB assay buffer) was assembled in wells of 96 well half area black flat bottom plates. All test compounds were first dissolved to 30 mM stocks in DMSO and subsequently introduced to enzyme 15 min after USP7 incubation with DTT at room temperature. The final concentration of tested compounds was 1 μM. The enzymatic reaction was started by adding 0.5 μM Ubiquitin-Rhodamine 110 (final concentration) and allowed to proceed for 30-60 min at 25° C., 250 RPM shaking before Rhodamine fluorescence (485 nm excitation/535 nm emission) was measured using Tecan Spark M10 plate reader. Percentage of inhibition at 1 μM was determined by the mean of two repetitions for these concentrations using Microsoft Excel software.
Regarding `Cc1cc(Cl)cc(-c2ncnn3cc(CN4C(=O)C5C(C4=O)C5(C)C)cc23)c1C(=O)N1C[C@@H](N)[C@@H](C)C1` (stereo partly drawn) [Example 23, 3-((4-(2-((3S,4S)-3-amino-4-methylpyrrolidine-1-carbonyl)-5-chloro-3-methylphenyl)pyrrolo[2,1-f][1,2,4]triazin-6-yl)methyl)-6,6-dimethyl-3-azabicyclo[3.1.0]hexane-2,4-dione 2,2,2-trifluoroacetate], the inhibition at 1 µM was in the range of 50 to 70%.
Same read-out and setting: with `Cc1cc(Cl)cc(-c2ncnn3cc(CN4C(=O)C5C(C4=O)C5(C)C)cc23)c1CC1CN[C@H](C)CO1` (stereo partly drawn) [Example 40, 3-((4-(5-chloro-3-methyl-2-(((5R)-5-methylmorpholin-2-yl)methyl)phenyl)pyrrolo[2,1-f][1,2,4]triazin-6-yl)methyl)-6,6-dimethyl-3-azabicyclo[3.1.0]hexane-2,4-dione hydrochloride] the figure was 50 to 70%; with `Cc1cc(Cl)cc(-c2ncnn3cc(CN4C(=O)C5C(C4=O)C5(C)C)cc23)c1NCC1CCNCC1` (stereo not drawn) [Example 73, 3-((4-(5-chloro-3-methyl-2-((piperidin-4-ylmethyl)amino)phenyl)pyrrolo[2,1-f][1,2,4]triazin-6-yl)methyl)-6,6-dimethyl-3-azabicyclo[3.1.0]hexane-2,4-dione dihydrochloride], more than 70%.
For `CC(C)n1ccc(=O)n(Cc2cc3c(-c4cc(Cl)cc5ccn(CC6(F)CCNCC6)c45)ncnn3c2)c1=O` [Example 127, 3-((4-(5-chloro-1-((4-fluoropiperidin-4-yl)methyl)-1H-indol-7-yl)pyrrolo[2,1-f][1,2,4]triazin-6-yl)methyl)-1-isopropylpyrimidine-2,4(1H,3H)-dione hydrochloride], the inhibition at 1 µM is more than 70%.
The same measure, in the same setting: with `CC1(C)C2C(=O)N(Cc3cc4c(-c5cc(Cl)cc6c5N(C[C@@H]5CNCCO5)CCC6)ncnn4c3)C(=O)C21` (stereo partly drawn) [Example 65, 3-((4-(6-chloro-1-(((S)-morpholin-2-yl)methyl)-1,2,3,4-tetrahydroquinolin-8-yl)pyrrolo[2,1-f][1,2,4]triazin-6-yl)methyl)-6,6-dimethyl-3-azabicyclo[3.1.0]hexane-2,4-dione hydrochloride] the figure was 20 to 49%.
Same read-out and setting: under `C[C@H]1CNCC(Cc2c(F)cc(Cl)cc2-c2ncnn3cc(CN4C(=O)CN(C)CC4=O)cc23)O1` (single isomer, unassigned) [Example 119, hydrochloride] stands 20 to 49%.
`Cc1cc(Cl)cc(-c2ncnn3cc(CN4C(=O)C5C(C4=O)C5(C)C)c(C)c23)c1O[C@H]1CCCNC1` (stereo partly drawn) [Example 12, 3-((4-(5-chloro-3-methyl-2-(((S)-piperidin-3-yl)oxy)phenyl)-5-methylpyrrolo[2,1-f][1,2,4]triazin-6-yl)methyl)-6,6-dimethyl-3-azabicyclo[3.1.0]hexane-2,4-dione hydrochloride]: the inhibition at 1 µM was in the range of 50 to 70%.
As to `CC1(C)C2C(=O)N(Cc3cc4c(-c5cc(Cl)cc6c5N(C5CCNC5)CC5CC65)ncnn4c3)C(=O)C21` (stereo not drawn) [Example 92, 3-((4-(6-chloro-3-(pyrrolidin-3-yl)-1a,2,3,7b-tetrahydro-1H-cyclopropa[c]quinolin-4-yl)pyrrolo[2,1-f][1,2,4]triazin-6-yl)methyl)-6,6-dimethyl-3-azabicyclo[3.1.0]hexane-2,4-dione hydrochloride], the inhibition at 1 µM lay within 50 to 70%.
Turning to `Cc1cc(Cl)cc(-c2ncnn3cc(CN4C(=O)CN(C)C4=O)cc23)c1C[C@@H]1CNCCO1` (single isomer, unassigned) [Example 99, hydrochloride], the inhibition at 1 µM is more than 70%.
On the same count and under the same terms, under `CN1CCOC(Cc2c(F)cc(Cl)cc2-c2ncnn3cc(Cn4c(=O)ccn(C)c4=O)cc23)C1` (racemic) [Example 103, 3-((4-(5-chloro-3-fluoro-2-((4-methylmorpholin-2-yl)methyl)phenyl)pyrrolo[2,1-f][1,2,4]triazin-6-yl)methyl)-1-methylpyrimidine-2,4(1H,3H)-dione hydrochloride] stands 20 to 49%; under `Cc1nc(C(F)(F)F)cc(-c2ncnn3cc(Cn4c(=O)ccn(C)c4=O)cc23)c1OC1CCCNC1` (stereo not drawn) [Example 129, 1-methyl-3-((4-(2-methyl-3-(piperidin-3-yloxy)-6-(trifluoromethyl)pyridin-4-yl)pyrrolo[2,1-f][1,2,4]triazin-6-yl)methyl)pyrimidine-2,4(1H,3H)-dione hydrochloride], less than 20%; under `CC1(C)C2C(=O)N(Cc3cc4c(-c5cc(C(F)(F)F)cc6ccn(CC7(O)CCNCC7)c56)ncnn4c3)C(=O)C21` (stereo not drawn) [Example 19, 3-((4-(1-((4-hydroxypiperidin-4-yl)methyl)-5-(trifluoromethyl)-1H-indol-7-yl)pyrrolo[2,1-f][1,2,4]triazin-6-yl)methyl)-6,6-dimethyl-3-azabicyclo[3.1.0]hexane-2,4-dione hydrochloride], 50 to 70%.
Same read-out and setting: under `Cc1cc(Cl)cc(-c2ncnn3cc(CN4C(=O)C5C(C4=O)C5(C)C)cc23)c1C1=CCNCC1` (stereo not drawn) [Example 84, 3-((4-(5-chloro-3-methyl-2-(1,2,3,6-tetrahydropyridin-4-yl)phenyl)pyrrolo[2,1-f][1,2,4]triazin-6-yl)methyl)-6,6-dimethyl-3-azabicyclo[3.1.0]hexane-2,4-dione hydrochloride] stands less than 20%; under `Cc1cc(Cl)cc(-c2ncnn3cc(Cn4c(=O)ccn(C)c4=O)cc23)c1C[C@H]1CNCCO1` (single isomer, unassigned) [Example 100, hydrochloride], 20 to 49%; under `Cc1cc(Cl)cc(-c2ncnn3cc(CN4C(=O)C5C(C4=O)C5(C)C)cc23)c1CC1CNC2(CC2)CO1` (stereo not drawn) [Example 71, 3-((4-(2-((7-oxa-4-azaspiro[2.5]octan-6-yl)methyl)-5-chloro-3-methylphenyl)pyrrolo[2,1-f][1,2,4]triazin-6-yl)methyl)-6,6-dimethyl-3-azabicyclo[3.1.0]hexane-2,4-dione 2,2,2-trifluoroacetate], 20 to 49%.
`CC1(C)C2C(=O)N(Cc3cc4c(-c5cc(C(=O)O)cc6ccn(C[C@@H]7CNCCO7)c56)ncnn4c3)C(=O)C21` (stereo partly drawn) [Example 47, 7-(6-((6,6-dimethyl-2,4-dioxo-3-azabicyclo[3.1.0]hexan-3-yl)methyl)pyrrolo[2,1-f][1,2,4]triazin-4-yl)-1-(((S)-morpholin-2-yl)methyl)-1H-indole-5-carboxylic acid hydrochloride]: the inhibition at 1 µM was less than 20%.
Same read-out and setting: under `Cc1cc(Cl)cc(-c2ncnn3cc(CN4C(=O)C5C(C4=O)C5(C)C)cc23)c1CC1(C)CNCC(C)(C)O1` (stereo not drawn) [Example 72, 3-((4-(5-chloro-3-methyl-2-((2,6,6-trimethylmorpholin-2-yl)methyl)phenyl)pyrrolo[2,1-f][1,2,4]triazin-6-yl)methyl)-6,6-dimethyl-3-azabicyclo[3.1.0]hexane-2,4-dione hydrochloride] stands more than 70%; under `Cc1cc(Cl)cc(-c2ncnn3cc(CN4C(=O)C5C(C4=O)C5(C)C)cc23)c1OCCN` (stereo not drawn) [Example 9, 3-((4-(2-(2-aminoethoxy)-5-chloro-3-methylphenyl)pyrrolo[2,1-f][1,2,4]triazin-6-yl)methyl)-6,6-dimethyl-3-azabicyclo[3.1.0]hexane-2,4-dione hydrochloride], 50 to 70%.
Same read-out and setting: with `CC1(C)C2C(=O)N(Cc3cc4c(-c5cc(F)cc6ccn(C[C@@H]7CNCCO7)c56)ncnn4c3)C(=O)C21` (stereo partly drawn) [Example 33, 3-((4-(5-fluoro-1-(((S)-morpholin-2-yl)methyl)-1H-indol-7-yl)pyrrolo[2,1-f][1,2,4]triazin-6-yl)methyl)-6,6-dimethyl-3-azabicyclo[3.1.0]hexane-2,4-dione 2,2,2-trifluoroacetate] the figure was more than 70%.

The same experiment, now with this note: 1 μM of the test compound; given where IC50 has not been determined yet; mean of two repetitions; hydrochloride, 1 µM.
Regarding `Cc1cc(Cl)cc(-c2ncnn3cc(CN4C(=O)C5C(C4=O)C5(C)C)cc23)c1OC(C)C1CCNCC1.Cl` (single isomer, unassigned) [Example 56, 3-((4-(5-chloro-3-methyl-2-(1-(piperidin-4-yl)ethoxy)phenyl)pyrrolo[2,1-f][1,2,4]triazin-6-yl)methyl)-6,6-dimethyl-3-azabicyclo[3.1.0]hexane-2,4-dione hydrochloride], the USP7 % inhibition result was “B* (B*: 50-70% inhibition)”.
On to `Cc1cc(Cl)cc(-c2ncnn3cc(CN4C(=O)C5C(C4=O)C5(C)C)cc23)c1OC(C)[C@@H]1CNCCO1.Cl` (single isomer, unassigned) [Example 76], for which the USP7 % inhibition result is on record as “B* (B*: 50-70% inhibition)”.

The values above are taken from US20240150362A1, “Substituted Pyrrolotriazines” (Molecure S.A., priority 2022, published 2024).
